{"source": "patent US6525245B1", "about": "“Method for identifying components involved in signal transduction pathways in higher plants” (The Board of Regents of the University of Nebraska, priority 1999, dated 2003)", "key": {"AOX": {"tested_on": "AOX", "settings": "cited from earlier work; for effect on AOX transcription / effect on branched chain amino acid biosynthesis: Aubert et al. 1997"}, "AOX1a promoter [1]": {"tested_on": "AOX1a promoter", "experiment": "Luciferase expression in excised leaves of AOX1a promoter::luciferase transgenic lines, exposure to film", "assay_type": "cell-based, Arabidopsis thaliana", "settings": "for luciferase response to application: lines PZB-ALN 26 and 47", "description": "Initial screening of the F1 plants was done by spraying excised leaves with 10 uM AA (FIG. 4A). The leaves were incubated for 4 hr in the light, then sprayed with luciferin, and exposed to autoradiographic film. […] Several pZB-ALN lines were used for imaging experiments employing a Hamamatsu photon-counting, CCD camera system (model C2400-75H)."}, "Arabidopsis plants": {"tested_on": "Arabidopsis plants", "experiment": "Survival of Arabidopsis plants after treatment", "assay_type": "in vivo", "description": "In order for a screen involving application of antimycin A or sulfometuron methyl to succeed, plants must survive the screening procedure. […] Plants from line pZB-ALN 8 were used to produce the dose response curve shown in FIG. 6 were transferred to fresh growth plates (without antimycin A) after 36 h of antimycin A treatment. […] These plants remained green with healthy, expanded first true leaves and healthy roots and produced a normal-looking second set of true leaves."}, "AOX1a promoter [2]": {"tested_on": "AOX1a promoter", "experiment": "Dose-response of AOXP-driven luciferase expression in seedlings, photon-counting CCD camera", "assay_type": "in vivo, Arabidopsis thaliana", "settings": "line pZB-ALN 8", "description": "Seeds from these lines were sterilized and germinated on filter discs on standard growth agar in six-well plates and then grown at 20° C. and 66 uE of continuous light for 7 days (to eliminate the possibility of circadian rhythm effects). A Hamamatsu CCD camera system was used to quantify the levels of AOXP-driven luciferase expression. […] Plants were imaged immediately following transfer to induction plates, then returned to the growth chamber under 66 uE continuous light and 20° C."}}, "data": [{"compound": "COc1nc(C)nc(NC(=O)NS(=O)(=O)c2ccccc2Cl)n1", "note": "[chlorsulfuron]", "values": [{"measurement": "effect on AOX transcription", "setting": "AOX", "result": "increase in AOX transcription"}, {"measurement": "effect on branched chain amino acid biosynthesis", "setting": "AOX", "result": "inhibit branched chain amino acid biosynthesis"}]}, {"compound": "O=C(O)CC(O)(CC(=O)O)C(=O)O", "note": "[citrate]", "values": [{"measurement": "AOX mRNA accumulation", "setting": "AOX; increase in amount of citrate in tobacco cells", "result": "accumulate"}, {"measurement": "luciferase response to application", "setting": "AOX1a promoter [1]", "result": "lower, but definite response"}]}, {"compound": "O=C(O)c1ccccc1O", "note": "[salicylic acid]", "values": [{"measurement": "AOX transcript accumulation", "setting": "AOX; Sauromatum guttatum and tobacco", "result": "accumulate"}, {"measurement": "luciferase response to application", "setting": "AOX1a promoter [1]", "result": "lower, but definite response"}]}, {"compound": "COC(=O)c1ccccc1S(=O)(=O)NC(=O)Nc1nc(C)cc(C)n1", "note": "[sulfometuron methyl]", "values": [{"measurement": "effect on AOX transcription", "setting": "AOX", "result": "increase in AOX transcription"}, {"measurement": "effect on branched chain amino acid biosynthesis", "setting": "AOX", "result": "inhibit branched chain amino acid biosynthesis"}, {"measurement": "survival of plants after treatment", "setting": "Arabidopsis plants; wild-type Arabidopsis plants sprayed with 5 uM or 5 nM", "result": "survive treatment"}, {"measurement": "luciferase expression", "setting": "AOX1a promoter [1]; 5 nM, 24 h following treatment, some of the lines", "result": "higher luciferase expression"}]}, {"compound": "antimycin A", "values": [{"measurement": "effect on AOX protein and transcript", "setting": "AOX; petunia cells, tobacco, Hensenula anomala", "result": "increases in AOX protein and transcript"}, {"measurement": "peak induction of luciferase expression over the negative control", "setting": "AOX1a promoter [2]; 1.0 mM or 100 uM", "result": "about 17 fold"}, {"measurement": "time after transfer until which peak induction level is kept", "setting": "AOX1a promoter [2]; 1.0 mM or 100 uM", "result": "at least 10 h"}, {"measurement": "time of peak induction after application", "setting": "AOX1a promoter [2]; 1.0 mM or 100 uM", "result": "about 6 h"}, {"measurement": "lowest concentration giving measurable induction", "setting": "AOX1a promoter [2]", "result": 0.1, "unit": "µM"}, {"measurement": "survival of plants after treatment", "setting": "Arabidopsis plants; line pZB-ALN 8, 0.1, 1.0, 10, 100 and 1000 uM, 36 h treatment, six days after treatment", "result": "survived without any apparent developmental alterations"}, {"measurement": "luciferase expression versus untreated control leaves", "setting": "AOX1a promoter [1]; 10 uM, 4 h after treatment, excised leaves, pZB-ALN and pZP-ALE lines, qualitative", "result": "higher luciferase expression"}]}]}
